Results from patent publication US20140171431A1, “AZOLE HETEROCYCLIC COMPOUND, PREPARATION METHOD, PHARMACEUTICAL COMPOSITION AND USE” (priority 2011, published 2014).

Molecular target: T1, Lp-PLA2 in rabbit serum (Oryctolagus cuniculus, UniProt G1SE06)
T1 construct: from tissue; host or cells: rabbit serum
T1 sequence (G1SE06 22-423): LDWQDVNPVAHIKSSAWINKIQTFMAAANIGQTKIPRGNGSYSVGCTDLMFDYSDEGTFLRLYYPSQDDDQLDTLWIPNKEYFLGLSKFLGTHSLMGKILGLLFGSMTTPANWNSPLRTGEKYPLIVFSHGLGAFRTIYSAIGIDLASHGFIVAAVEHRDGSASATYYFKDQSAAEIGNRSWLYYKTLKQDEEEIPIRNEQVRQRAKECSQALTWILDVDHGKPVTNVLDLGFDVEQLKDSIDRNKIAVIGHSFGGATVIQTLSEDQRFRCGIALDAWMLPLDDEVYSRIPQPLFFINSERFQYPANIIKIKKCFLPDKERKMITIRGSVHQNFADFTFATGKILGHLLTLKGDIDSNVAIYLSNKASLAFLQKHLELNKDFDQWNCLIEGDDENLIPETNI
Assay: In vitro inhibitory activity towards the enzyme Lp-PLA2 in rabbit serum, [3H]PAF substrate
Assay type: biochemical
Conditions: rabbit serum; for inhibition at 0.1 µM: 100 nM, read-out: inhibition, %
Description: The activities of compounds were measured using [^3H] labeled platelet activating factor ([^3H]PAF, Perkinelmer, Lot NET910) as the substrate. The reaction was carried out in a system containing 50 mmol/L HEPES and 150 mmol/L NaCl (pH 7.4) in a total volume of 200 μl. First, 10 μL rabbit serum and 10 μl DMSO solution of the test compound were added to the system and preincubated for 10 min at 37° C. Then 20 nM [^3H]PAF was added as listed in table 1 to start the reaction and incubated for a further 10 min at 37° C. After that, 600 μl of CHCl3/MeOH (2:1) was added and the resulting mixture was vortex mixed and the reaction was stopped. After settled for a while, the mixture was centrifugated at 12000×g for 15 min. The supernatant was transferred to a new tube and 200 μl of CHCl3 was added. The mixture was mixed by vortexing and then settled or centrifugated for 2 min. A 100 μl portion of the supernatant was then collected for radioactivity intensity measurement.
The inhibition rate was determined by the following equation:
Inhibitory rate (%)=1−(DPMcompound tube−DPMblank tube)/(DPMcontrol tube−DPMblank tube)*100%
(Note: DPM is radioactivity intensity unit.)

| SMILES | inhibition at 1 µM | inhibition at 10 µM | inhibition at 0.1 µM |
| --- | --- | --- | --- |
| CCCCCCCCCCC1NC(Cn2c(SCc3ccc(F)cc3)nc(=O)c3c2CCC3)=NO1 (stereo not drawn) [Example 2, 1-((5-n-decyl-4,5-dihydro-1,2,4-oxadiazol-3-yl)methyl)-2-(4-fluorobenzylthio)-6,7-dihydro-1H-cyclopenta[d]pyrimidin-4(5H)-one] | 26.6% | 82.7% | – |
| O=c1nc(SCc2cccc(F)c2F)n(CC2=NOC(c3ccc(-c4ccc(C(F)(F)F)cc4)cc3)N2CCN2CCCCC2)c2c1CCC2 (stereo not drawn) [Example 23, 2-(2,3-difluorobenzylthio)-1-((4-(2-(piperidin-1-yl)ethyl)-5-(4′-(trifluoromethyl)biphenyl-4-yl)-4,5-dihydro-1,2,4-oxadiazol-3-yl)methyl)-6,7-dihydro-1H-cyclopenta[d]pyrimidin-4(5H)-one] | 33% | 82.4% | – |
| CCN(CC)CCN1C(Cn2c(SCc3ccc(F)cc3)nc(=O)c3c2CCC3)=NOC1c1ccc(-c2ccc(C(F)(F)F)cc2)cc1 (stereo not drawn) [Example 24, 1-((4-(2-(diethylamino)eth-yl)-5-(4′-(trifluorometh-yl)biphenyl-4-yl)-4,5-di-hydro-1,2,4-oxadiazol-3-yl)methyl)-2-(4-fluorobenzyl-thio)-6,7-dihydro-1H-cyclopenta[d]pyrimidin-4(5H)-one] | 16.3% | 78.5% | – |
| O=c1nc(SCc2ccc(F)cc2)n(CC2=NOC(c3ccc(-c4ccc(C(F)(F)F)cc4)cc3)N2CCN2CCCCC2)c2c1CCC2 (stereo not drawn) [Example 20, 2-(4-fluorobenzylthio)-1-((4-(2-(piperidin-1-yl)ethyl)-5-(4′-(trifluoromethyl)biphenyl-4-yl)-4,5-dihydro-1,2,4-oxadiazol-3-yl)methyl)-6,7-dihydro-1H-cyclopenta[d]pyrimidin-4(5H)-one] | 31% | 86.6% | – |
| CCCCCCCC1NC(Cn2c(SCc3ccc(F)cc3)nc(=O)c3c2CCC3)=NO1 (stereo not drawn) [Example 1, 2-(4-fluorobenzylthio)-1-((5-n-heptyl-4,5-dihydro-1,2,4-oxadiazol-3-yl)methyl)-6,7-dihydro-1H-cyclopenta[d]pyrimidin-4(5H)-one] | 10% | 62.6% | – |
| CCOC(=O)c1cnc(Cn2c(SCc3ccc(F)cc3)nc(=O)c3c2CCC3)n1Cc1ccc(-c2ccc(C(F)(F)F)cc2)cc1 [Example 50, ethyl 2-((2-(4-fluorobenzylthio)-4-oxo-4,5,6,7-tetrahydro-1H-cyclopenta[d]pyrimidin-1-yl)methyl)-1-((4′-(trifluoromethyl)biphenyl-4-yl)methyl)-1H-imidazole-5-carboxylate] | – | – | 57% |
| CCCC/C=C/N1C(Cn2c(SCc3ccc(F)cc3)nc(=O)c3c2CCC3)=NOC1CCCCCCC (stereo not drawn) [Example 18, (E)-2-(4-fluorobenzylthio)-1-((5-n-heptyl-4-(n-hex-1-enyl)-4,5-dihydro-1,2,4-ox-adiazol-3-yl)methyl)-6,7-di-hydro-1H-cyclopenta[d]py-rimidin-4(5H)-one] | 7.4% | 41.9% | – |
| CCCC1NC(Cn2c(SCc3ccc(F)cc3)nc(=O)c3c2CCC3)=NO1 (stereo not drawn) [Example 6, 2-(4-fluorobenzylthio)-1-((5-n-propyl-4,5-dihydro-1,2,4-oxadiazol-3-yl)methyl)-6,7-dihydro-1H-cyclo-penta[d]pyrimidin-4(5H)-one] | 16.2% | 74% | – |
| Cc1ccc(-c2ccc(Cn3ccnc3Cn3cc(Cc4cnn(C)c4)c(=O)nc3SCc3ccc(F)cc3)cc2)cc1 [Example 34, 2-(4-fluorobenzylthio)-5-((1-methyl-1H-pyrazol-4-yl)methyl)-1-((1-((4′-methylbiphenyl-4-yl)methyl)-1H-imidazol-2-yl)methyl)pyrimidin-4(1H)-one] | 14.6% | – | – |
| O=c1nc(SCc2ccc(F)cc2)n(Cc2nc3ccccc3n2Cc2ccc(-c3ccc(C(F)(F)F)cc3)cc2)c2c1CCC2 [Example 53, 2-(4-fluorobenzylthio)-1-((1-((4′-(trifluoromethyl)biphenyl-4-yl)methyl)-1H-benzo[d]imidazol-2-yl)methyl)-6,7-dihydro-1H-cyclopenta[d]pyrimidin-4(5H)-one] | 90.1% | – | 43.2% |
